From US20250057808A1, “COMPOSITION COMPRISING BETA LACTAM FOR TREATING ALCOHOL DEPENDENCE AND ALCOHOL ASSOCIATED DISEASES OR CONDITIONS” (Temple University of the Commonwealth System of Higher …, priority 2023, published 2025) come the findings set out here.

Assay type in all cases: in vivo, Male P rats
In one test the test system is GLT-1. As to the kind of experiment: GLT-1 expression in mPFC subregions IL and PL (further studies, 100 mg/kg). The following applies: MC-100093 100 mg/kg i.p. 5 days. As for the experimental part: We used micro-punch procedure to dissect the subregions of the NAc such as NAc-core and NAc-shell as well as the subregions of prefrontal cortex such as infralimbic (IL) and prelimbic (PL) from the brain on day 6 after the last injection day. P rats were removed from the cage and rapidly euthanized by CO2 inhalation followed by rapid decapitation with a guillotine. Brains were isolated and immediately frozen on dry ice and stored at −80° C. The stereotaxic coordinates provided by Paxinos and colleague's rat brain stereotactic atlas was used to isolate NAc-core and NAc-shell using a cryostat apparatus (−20° C.), which then kept at −80° C. for later western blot analyses.
Western Blot assay was performed to measure changes in the expression of GLT-1, xCT, mGluR1, mGluR5, PPAR-α, PPARγ, GAPDH and β-tubulin in the NAc-core and NAc-shell as described in previous publications. A lysis buffer containing protease and phosphatase inhibitors was used to generate a homogenate of liver, Nac-core, and Nac-shell samples. The amount of protein was quantified using a detergent compatible protein assay (Bio-Rad, Hercules, CA, USA) for each sample. Samples were mixed with laemmli dye and loaded with equal amounts on polyacrylamide gels (10%), which separated the proteins using electrophoresis. […]

For the next test, the system named is BDNF. Put plainly: Western blot BDNF in subregions of mPFC and NAc. On the procedure: (§1) All P rats were euthanized by CO2 inhalation and decapitated with a guillotine 24 hours after the final i.p. injection was administered on Day 6 of Week 6. Brains were removed and immediately frozen on dry ice and stored at −80° C. The mPFC subregions (infralimbic cortex and prelimbic cortex) and NAc subregions (core and shell) were dissected using a cryostat machine kept at −20° C. Surgical blades were used to dissect all brain regions following visualized landmarks using the stereotaxic coordinates provided by Paxinos and colleague's rat brain stereotactic atlas. All brain regions were stored in −80° C. Western Blot analyses.
(§2) Western blot was performed to determine the expression of BDNF, TNF-α, RAGE, HMGβ-1, and β-tubulin in the subregions of mPFC and NAc as preformed in previous studies.
(§3) Brain samples were lysed with a lysing buffer containing protease inhibitors. The amount of protein in each sample was quantified using a detergent compatible protein assay (Bio-Rad, Hercules, CA, USA). Polyacrylamide gels (10%) were loaded with the lysate mixture, and proteins were separated using gel electrophoresis for 1 hour. Proteins were then transferred from the gels onto Polyvinylidene difluoride (PVDF) membranes (BioRad). After transfer, membranes were incubated for 30 minutes in a mixture of nonfat milk in 1×Tris-buffered saline with Tween-20 (TBST) at room temperature. Membranes were then incubated at 4° C. for 24 hours with primary antibodies: anti-rabbit BDNF (1:1000, Abeam, #ab108319), anti-rabbit TNF-α (1:500, Abeam, #ab9739), anti-rabbit HMGβ-1 (1:500, Abeam, #ab18256), and anti-rabbit RAGE (1:1000, Abeam, #ab37407). Anti-mouse-β-tubulin (1:1000, Cell Signaling Technology, #D71G9) was used as a loading control antibody. After incubating for 24 hours, secondary antibody such as donkey anti-rabbit (1:4000, Invitrogen, #31458) or anti-mouse (1:4000, Cell Signaling, #7076S) was added to the membrane for 1 hour at room temperature. The membranes were then washed with 1×TBST three times for 5 minutes each and then dried. Membranes were then incubated in chemiluminescent reagents (Super Signal West Pico, Pierce Inc.) for 2 minutes. Blot images were developed using ChemiDoc. Imaging System and ImageJ software version 1.53a were used to quantify and analyze the expression of BDNF, TNF-α, RAGE, HMGβ-1, and β-tubulin.
(§4) The data for the water/saline control group were expressed as 100% based on the values corresponding to the ethanol/saline and ethanol/MC-100093 groups for each set of blotting. Thus, the expression of selected proteins for each group (ethanol/saline group or ethanol/MC-100093 group) was calculated relative to the water/saline control group being set to 100%.
(§5) Statistical analyses were performed using GraphPad Prism Version 10. Two-way repeated measures ANOVA followed by Bonferroni post-hoc tests were used to compare water and ethanol intake, and body weight, amongst water group, ethanol/saline group and ethanol/MC-100093 group. A one-way ANOVA test was performed to compare the expression of the studied proteins in selected brain regions in water/saline, ethanol/saline and ethanol/MC-100093 groups. Statistical significance was determined by a p-value of or less than 0.05.

A further test relates to TNF-α. As to the kind of experiment: Western blot TNF-α in subregions of mPFC and NAc. On the procedure:
as §1, §2, §3, §4, §5

Where [1] appears, read: 100 mg/kg i.p., compared to ethanol/saline group.
[2] abbreviates: ethanol/MC-100093 group (100 mg/kg i.p.) compared to water/saline and ethanol/saline groups.

SMILES strings stand for the structures. “Also recorded” adds a separate entry of the source.

In the case of `C[C@@H](O)[C@H]1C(=O)N[C@@H]1[C@@H](C)C(=O)N1CCN(C)CC1` [MC-100093], the “GLT-1 expression in the prelimbic frontal cortex (PL)” value in the test on GLT-1 (vs control/saline and ethanol/saline) is recorded as “increased GLT-1 expression in both subregions of mPFC; also recorded: non-statistically significant increase of GLT-1 expression; also recorded: upregulated the expression of GLT-1”. Moreover, the “GLT-1 expression in the infralimbic prefrontal cortex (IL)” value with GLT-1 (vs ethanol/saline) is given as “increased GLT-1 expression in both subregions of mPFC; also recorded: significantly higher levels of GLT-1 expression; also recorded: increased the expression of GLT-1; also recorded: upregulated GLT-1 expression”. The “BDNF expression in the NAc shell” value with BDNF (setting [1]) is reported as “significant increase in BDNF expression”. Moreover, the “Increase in BDNF expression in the NAc core” value with BDNF (100 mg/kg i.p., compared to water/saline and ethanol/saline groups) turned out to be 11%. Besides, in the test on BDNF (setting [2]), the “Increase in BDNF expression in the IL (mPFC)” value is recorded as 40% and the “Increase in BDNF expression in the PL (mPFC)” value is 27%. In the test on BDNF (male P rats, 100 mg/kg i.p., 100 mg/kg), the “BDNF expression in the subregions of NAc and mPFC (summary)” value is given as “attenuated ethanol-induced downregulation of brain derived neurotrophic factor (BDNF) expression”. In the test on TNF-α (setting [1]), the “TNF-α expression in the IL” value was “decreased significantly TNF-α expression”, the “TNF-α expression in the NAc core” value is listed as “decreased significantly TNF-α expression”, the “TNF-α expression in the NAc shell” value is “decreased TNF-α expression” and the “TNF-α expression in the PL” value is recorded as “significantly decreased the expression of TNF-α”. In addition, in the test with TNF-α (post-treatment with MC-100093 100 mg/kg i.p., 100 mg/kg), the “TNF-α expression in IL, PL, NAc core and NAc shell (summary)” value was “normalized TNF-α expression in all these brain regions; also recorded: attenuated ethanol-induced upregulation of pro-inflammatory cytokines such as TNF-a and HMGB1”.
